{
  "source": "patent US12037306B2",
  "about": "“Methods of treating neurofibromatosis type 1 with N-((R))-2,3-dihydroxypropoxy)-3,4-difluoro-2-(2-fluoro-4-iodophenylamino)-benzamide” (Warner-Lambert Company LLC, priority 2021, dated 2024)",
  "test": "Form IV stability by XRPD comparison to a reference standard after storage",
  "assay_type": "physicochemical",
  "conditions": "stored at 25° C. and 65% relative humidity",
  "protocol": "In some aspects, the XRPD pattern is generated using a PANALYTICAL® X'Pert Pro diffractometer using Ni-filtered Cu Kα (45 kV/40 mA) radiation and a step size of 0.03° 2θ with a X'CELERATOR® Real Time Multi-Strip detector, configured (a) on the incidental beam side as follows: variable divergence slits (10 mm irradiated length), 0.04 rad Soller slits, fixed anti-scatter slit (0.50°), and 10 mm beam mask, and (b) on the diffracted beam side as follows: variable anti-scatter slit (10 mm observed length) and 0.04 rad Soller slit or a BRUKER® D8® ADVANCE™ system using Cu Kα (40 kV/40 mA) radiation and a step size of 0.03° 2θ with a LYNXEYE™ detector, configured (a) on the incidental beam side as follows: Göebel mirror, mirror exit slit (0.2 mm), 2.5° Soller slit, beam knife, and (b) on the diffracted beam side as follows: anti-scatter slit (8 mm) and 2.5° Soller slit, wherein samples are mounted flat on zero-background Si wafers. In some aspects, the DSC pattern is generated using a TA Instruments Q100 or Q2000 differential scanning calorimeter at a rate of temperature increase of about 15° C./min.\nStability of Form IV material was determined by comparing the XRPD spectrum of a batch to a reference standard XRPD spectrum. This analysis was performed at batch release, and the XRPD spectrum obtained corresponded to that of the reference standard of Form IV (FIG. 2). […]",
  "data": [
    {"molecule": "O=C(NOC[C@H](O)CO)c1ccc(F)c(F)c1Nc1ccc(I)cc1F", "note": "[Form IV, N—((R)-2,3-dihydroxypropoxy)-3,4-difluoro-2-(2-fluoro-4-iodo-phenylamino)-benzamide]", "values": [
      {"measurement": "Changes in the XRPD spectrum over time (stability of Form IV)", "setting": "XRPD at 68 months (FIG. 3A)", "value": "Undetectable changes"},
      {"measurement": "Changes in the XRPD spectrum over time (stability of Form IV)", "setting": "XRPD at 140 months (FIG. 3B)", "value": "Undetectable changes"}
    ]}
  ]
}
